How the values were obtained:
Assay in all cases: TEVC in Xenopus oocytes
Type in all cases: cell-based
K2P4.1 (TRAAK)^CG* = conditions: 20 μM
Excerpt: (§1) Mouse K2P2.1 (TREK-1) (Genbank accession number: NP_034737.2), mouse K2P10.1 (TREK-2) (NM_001316665.1), mouse K2P4.1 (TRAAK) (NM_008431.3), human K2P4.1 (TRAAK) (NM_033310.2) and mouse K2P18.1(TRESK) (NM_207261.3) were used for this study. Point mutations were introduced by site-directed mutagenesis using custom primers and confirmed by sequencing before use. For studies using Xenopus oocytes, K2P channels were subcloned into a previously reported pGEMHE/pMO vector (46). For expression in HEK293 cells, mouse K2P2.1 (TREK-1) and mutants were expressed from a previously described pIRES2-EGFP vector in HEK293 cells (46,47). K2P2.1 (TREK-1) tandems were constructed by connecting the open reading frames for the individual subunits with a linker encoding the […] (SEQ ID NO: 19) sequence. Tandems used for HEK293 cells included an N-terminal HA tag ([…] (SEQ ID NO: 20)) on the first subunit.
(§2) Xenopus laevis oocytes were harvested according to UCSF IACUC Protocol AN129690 and digested using collagenase (Worthington Biochemical Corporation, #LS004183, 0.8-1.0 mg/mL) in Ca^21-free ND96 (96 mM NaCl, 2 mM KCl, 3.8 mM MgCl2, 5 mM HEPES pH 7.4) immediately post-harvest, as previously reported (31,33). Oocytes were maintained at 18° C. in ND96 (96 mM NaCl, 2 mM KCl, 1.8 mM CaCl2, 2 mM MgCl2, 5 mM HEPES pH 7.4) supplemented with antibiotics (100 units mL^−1 penicillin, 100 μg mL^−1 streptomycin, 50 μg mL^−1 gentimycin) and used for experiments within one week of harvest.
(§3) Defolliculated stage V-VI oocytes were microinjected with 0.5-36 ng mRNA and currents were recorded within 16-48 h hours of injection.
(§4) For recordings, oocytes were impaled with borosilicate recording microelectrodes (0.4-2.0 MΩ resistance) backfilled with 3 M KCl and were subjected to constant perfusion of ND96 at a rate of 3 ml min^−1. Recording solutions containing K2P activators were prepared immediately prior to use from DMSO stocks (20-100 mM), with final DMSO concentrations of 0.1%. Currents were evoked from a −80 mV holding potential followed by a 300 ms ramp from −150 mV to +50 mV. Data were recorded using a GeneClamp 500B amplifier (MDS Analytical Technologies) controlled by pCLAMP8 software (Molecular Devices), and digitized at 1 kHz using Digidata 1332 Å digitizer (MDS Analytical Technologies). For each recording, control solution (ND96) was perfused over a single oocyte until current was stable before switching to solutions containing the test compounds at various concentrations. Representative traces and dose response plots were generated in GraphPad Prism 9.

[1] = target: T1, TREK-1^CG* (K2P2.1 (TREK-1) S131C) (Mus musculus, UniProt P97438, S146C); conditions: for Reversibility of activation on washout: 20 μM, Xenopus oocytes
T1 construct: expressed in transfected cells; host or cells: Xenopus laevis oocytes injected with mRNA
T1 sequence (P97438 1-411 isoform P97438-2 S131C): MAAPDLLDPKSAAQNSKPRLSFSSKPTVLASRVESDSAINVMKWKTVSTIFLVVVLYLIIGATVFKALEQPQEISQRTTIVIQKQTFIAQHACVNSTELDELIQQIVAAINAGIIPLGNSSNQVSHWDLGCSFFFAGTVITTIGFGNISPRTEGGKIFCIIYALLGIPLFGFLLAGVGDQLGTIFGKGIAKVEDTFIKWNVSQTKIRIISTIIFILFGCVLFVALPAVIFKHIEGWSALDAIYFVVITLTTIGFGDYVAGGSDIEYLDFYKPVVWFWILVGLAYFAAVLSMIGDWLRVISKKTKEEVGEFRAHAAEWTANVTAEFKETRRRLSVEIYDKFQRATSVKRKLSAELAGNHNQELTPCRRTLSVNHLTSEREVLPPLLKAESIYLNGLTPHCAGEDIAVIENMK
Excerpt: as §1, §2, §3, §4

Q258K K2P4.1 (TRAAK)^CG* = target: T2, Q258K K2P4.1 (TRAAK)^CG* (Homo sapiens, UniProt Q9NYG8, Q232K/S92C); conditions: 20 μM; after 2 min
T2 construct: expressed in transfected cells; host or cells: Xenopus laevis oocytes injected with mRNA
T2 sequence (Q9NYG8 1-393 S92C/Q232K): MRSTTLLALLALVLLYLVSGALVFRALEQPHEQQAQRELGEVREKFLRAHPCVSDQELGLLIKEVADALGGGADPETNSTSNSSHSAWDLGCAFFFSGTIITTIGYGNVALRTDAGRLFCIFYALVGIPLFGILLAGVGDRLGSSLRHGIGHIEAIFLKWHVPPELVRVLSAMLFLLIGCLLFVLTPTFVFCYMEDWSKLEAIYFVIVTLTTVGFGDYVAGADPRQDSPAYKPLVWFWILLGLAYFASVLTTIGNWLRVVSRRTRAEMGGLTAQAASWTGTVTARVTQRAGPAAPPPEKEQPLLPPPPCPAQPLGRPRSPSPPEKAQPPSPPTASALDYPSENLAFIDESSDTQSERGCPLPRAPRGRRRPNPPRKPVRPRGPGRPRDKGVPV
Excerpt: as §1, §2, §3, §4

Row | Structure (SMILES) | Reversibility of activation (K2P4.1 (TRAAK)^CG*; Xenopus oocytes) | Fold-activation (I activator/I control) (K2P4.1 (TRAAK)^CG*; after 2 min) [fold] | Fold-activation (I activator/I control) (K2P4.1 (TRAAK)^CG*; longer application (6 min) to approach maximal activation) [fold] | Reversibility of activation on washout [1] | Fold-activation (I activator/I control) (Q258K K2P4.1 (TRAAK)^CG*) [fold] | Emax (IML335/Icontrol) ([1]; TEVC at 0 mV) [fold activation] | EC50 ([1]; TEVC at 0 mV, normalized to initial currents) [µM]
1 | O=C(NCc1ccc(Cl)cc1Cl)c1ccc(N2C(=O)C=CC2=O)cc1 [CAT335] | irreversibly activated | 4.2±0.6 | 11±1 | irreversible | 7.4 ± 0.6 |  | 
2 | CS(=O)(=O)Nc1ccc(C(=O)NCc2ccc(Cl)cc2Cl)cc1 [ML335, reference compound] |  | 1.9±0.1 |  | immediate reversal | 3.7±0.3 | 9.6±0.8 | 18 ± 4

— patent US20260098008A1, “COVALENT, CHEMOGENETIC ACTIVATORS FOR K2P POTASSIUM CHANNELS AND USES THEREOF” (THE REGENTS OF THE UNIVERSITY OF CALIFORNIA, priority 2022, published 2026)
